Consider 67 molecules from the OPERA property sets (Mansouri et al. 2018).

Converted amounts (≈) assume the structure as drawn.

As usually defined, the solubility is the dissolved amount per volume that the medium holds. A higher solubility goes with much dissolved substance.

For the first series the following is noted: 25 °C.
In the case of `Brc1ccc(Br)cc1`, the solubility amounted to 0.0848 mM (≈ 0.02 mg/mL). That is a double-digit micromolar value.

Molecule `O=[N+]([O-])c1ccccc1O` showed a solubility of 18 mM (≈ 2.5 mg/mL).

With `CCC[C@@H](O)CC`, the solubility is 158 mM (≈ 16.1 mg/mL). Regarding `CCc1cccc2ccccc12`, the solubility is 0.0685 mM (≈ 0.0107 mg/mL). Molecule `CC(=O)[C@@]1(C)CC[C@H]2[C@@H]3C=C(C)C4=CC(=O)CC[C@]4(C)[C@H]3CC[C@@]21C` displayed a solubility of 0.00534 mM (≈ 0.00182 mg/mL).

As to `CCCCCCCC`, the solubility is 0.00578 mM (≈ 0.00066 mg/mL).

The molecule `COc1cc(-c2ccc(N)c(OC)c2)ccc1N` came in with a solubility of 0.246 mM (≈ 0.06 mg/mL). With `CCC1(C2=CCCCCC2)C(=O)NC(=O)NC1=O`, the solubility was 0.999 mM (≈ 0.25 mg/mL). This solubility lies about 4.1-fold higher than the previous one. Same read-out and setting: to `O=[N+]([O-])c1cc(C2CCCCC2)c(O)c([N+](=O)[O-])c1` belongs 0.0563 mM (≈ 0.015 mg/mL). On the same count and under the same terms, under `CCC(C)(C)CO` stands 74.4 mM (≈ 7.6 mg/mL); under `O=C(O)COc1ccc(Cl)c(Cl)c1`, 2.07 mM (≈ 0.457 mg/mL); under `ClCBr`, 129 mM (≈ 16.7 mg/mL). The molecule `Clc1ccc(Br)cc1` gave a solubility of 0.235 mM (≈ 0.0449 mg/mL). This solubility lies about 550-fold lower than the previous one. Still for that read-out and setting: under `S=C=Nc1cccc(Br)c1` stands 0.0822 mM (≈ 0.0176 mg/mL); under `C=C(Cl)CSC(=S)N(CC)CC`, 0.447 mM (≈ 0.1 mg/mL).

Take `Cc1ccc2ccc(C)nc2c1`: the solubility worked out at 11.4 mM (≈ 1.79 mg/mL). The same measure, in the same setting: under `CN(C)CC/C=C1\c2ccccc2COc2ccccc21` stands 0.113 mM (≈ 0.0316 mg/mL); under `C=CCC1(C(C)CCC)C(=O)NC(=S)NC1=O` (configuration not stated), 0.348 mM (≈ 0.0885 mg/mL); under `Cc1ccc2ccccc2c1`, 0.173 mM (≈ 0.0246 mg/mL).

`CCC(O)(CC)CC` came in with a solubility of 145 mM (≈ 16.8 mg/mL). Still for that read-out and setting: to `Cc1cc(Cl)ccc1OCC(=O)O` belongs 3.14 mM (≈ 0.63 mg/mL); to `Clc1cc(-c2ccccc2)c(Cl)c(Cl)c1Cl`, 4.8e-05 mM (≈ 1.4e-05 mg/mL); to `CC(=O)C(C)C`, 706 mM (≈ 60.8 mg/mL).

On to `COc1ccc2c(c1OC)C(=O)O[C@@H]2[C@H]1c2c(cc3c(c2OC)OCO3)CCN1C`, for which the solubility was 0.449 mM (≈ 0.186 mg/mL). On the same count and under the same terms, under `S=C=NCc1ccccc1` stands 0.73 mM (≈ 0.109 mg/mL); under `Clc1cccc(Cl)c1-c1ccccc1`, 0.0108 mM (≈ 0.00241 mg/mL).

Consider `c1ccc2c(c1)Cc1cc3ccccc3cc1-2`, for which the solubility was found to be 1.1e-05 mM (≈ 2.38e-06 mg/mL). This solubility is about 980-fold lower than that of the molecule before.

The molecule `Clc1cc(Cl)c2c(c1Cl)Oc1ccccc1O2` yielded a solubility of 2.92e-05 mM (≈ 8.41e-06 mg/mL). This solubility lies about 2.7-fold higher than the previous one. Turning to `c1ccc2[nH]ccc2c1`, the solubility worked out at 30.4 mM (≈ 3.56 mg/mL). For the molecule `C#CCCCC#C`, the solubility turned out to be 17.5 mM (≈ 1.61 mg/mL). The same measure, in the same setting: under `C(=C\c1ccccc1)/CN1CCN(C(c2ccccc2)c2ccccc2)CC1` stands 2.04 mM (≈ 0.75 mg/mL); under `CCC(C)c1cc([N+](=O)[O-])cc([N+](=O)[O-])c1OC(C)=O` (configuration not stated), 7.79 mM (≈ 2.2 mg/mL); under `C=CC1CC=CCC1` (configuration not stated), 0.462 mM (≈ 0.05 mg/mL).

Consider `Cc1c[nH]c(=S)[nH]c1=O`, for which the solubility is 3.58 mM (≈ 0.509 mg/mL). Take `O=C1C(Cl)=C(Cl)C(=O)C(Cl)=C1Cl`: the solubility came out at 1.02 mM (≈ 0.25 mg/mL).

For `CCC1(CC)C(=O)NC(=O)N(C)C1=O`, the solubility turned out to be 9.99 mM (≈ 1.98 mg/mL). Still for that read-out and setting: to `Clc1ccc(Cl)c(-c2cc(Cl)ccc2Cl)c1` belongs 5.24e-05 mM (≈ 1.53e-05 mg/mL); to `CC(=O)CC(C)C`, 190 mM (≈ 19 mg/mL); to `O=C(O)C(c1ccccc1)c1ccccc1`, 0.598 mM (≈ 0.127 mg/mL).

As for `C[C@]12CC[C@H]3C(=CCc4cc(O)ccc43)[C@@H]1CCC2=O`, the solubility was 0.00525 mM (≈ 0.00141 mg/mL). Compared with the last molecule, the solubility is about 110-fold lower. The same measure, in the same setting: under `Clc1ccc(-c2cc(Cl)ccc2Cl)cc1` stands 0.000555 mM (≈ 0.000143 mg/mL); under `Fc1cc(F)c(F)c(F)c1`, 4.95 mM (≈ 0.742 mg/mL). Still for that read-out and setting: to `C1CCCCCC1` belongs 0.306 mM (≈ 0.03 mg/mL).

Take `O=C(O)c1cccc(O)c1`: the solubility was found to be 52.5 mM (≈ 7.25 mg/mL).

Take `CC(C)CC(C)C`: the solubility was found to be 0.0549 mM (≈ 0.0055 mg/mL).

The molecule `CCC(C)Cl` (configuration not stated) returned a solubility of 10.8 mM (≈ 1 mg/mL). Same read-out and setting: to `CC(C)C(C)C` belongs 0.261 mM (≈ 0.0225 mg/mL); to `O=C1NC(=O)c2ccccc21`, 2.45 mM (≈ 0.36 mg/mL). On the same count and under the same terms, under `Fc1ccccc1Br` stands 2.01 mM (≈ 0.353 mg/mL).

Molecule `Clc1ccc2c(c1)Oc1ccccc1O2` registered a solubility of 0.00146 mM (≈ 0.000319 mg/mL).

With `O=C(O)c1ccc(F)cc1`, the solubility came to 8.56 mM (≈ 1.2 mg/mL).

With `CC(C(=O)O)C(=O)O`, the solubility is 5750 mM (≈ 679 mg/mL).

For `CN1C(=O)C(C)(C2=CCCCC2)C(=O)N=C1O` (configuration not stated), the solubility was found to be 1.84 mM (≈ 0.435 mg/mL).

Still in this series, the particulars now being: 27 °C.
On to `c1cc2c3c(c1)ccc1cccc(c13)C2`, for which the solubility is 0.00578 mM (≈ 0.0011 mg/mL). Same read-out and setting: to `CC(=O)[C@@]1(O)CC[C@H]2[C@@H]3CCC4=CC(=O)CC[C@]4(C)[C@H]3CC[C@@]21C` belongs 0.0196 mM (≈ 0.00648 mg/mL); to `C#C[C@]1(O)CC[C@H]2[C@@H]3CCc4cc(O)ccc4[C@H]3CC[C@@]21C`, 0.0381 mM (≈ 0.0113 mg/mL).

Staying with this series, now noted: 28 °C.
`O=C(O)CCCC(=O)O` displayed a solubility of 12100 mM (≈ 1600 mg/mL).

Staying with this series, now noted: 30 °C.
For the molecule `ClC(Cl)Br`, the solubility worked out at 18.5 mM (≈ 3.03 mg/mL). The same measure, in the same setting: to `COc1ccc2ccc(=O)oc2c1CC=C(C)C` belongs 0.0491 mM (≈ 0.012 mg/mL); to `NCCCCCCCCCCC(=O)O`, 4.97 mM (≈ 1 mg/mL); to `COC(=O)c1ccccc1O`, 48.6 mM (≈ 7.4 mg/mL). Still for that read-out and setting: to `Cc1cccc([N+](=O)[O-])c1` belongs 3.65 mM (≈ 0.5 mg/mL); to `CCN(CC)CCOC(=O)c1ccc(N)cc1`, 40 mM (≈ 9.45 mg/mL); to `O=C(O)CCCCCCCCCCBr`, 0.2 mM (≈ 0.053 mg/mL). On the same count and under the same terms, to `C/C=C/C=C/C(=O)O` belongs 22.3 mM (≈ 2.5 mg/mL); to `CCOC(=O)C1(c2ccccc2)CCN(C)CC1`, 13 mM (≈ 3.22 mg/mL).

Regarding `COc1ccc([N+](=O)[O-])cc1`, the solubility was determined as 3.85 mM (≈ 0.59 mg/mL).
